# According to ChEMBL document CHEMBL1125969, “Design, synthesis and cytotoxic evaluation of keto-C-glycoside fatty acid conjugates” (Bioorg Med Chem Lett, 1991):
# pIC50: −log10 of the molar value.
# Tested on: LFCl2A
# Experiment: In vitro cytotoxicity against LFCl2A (rat hepatocarcinoma) cells.
# Type: functional, cell-based
# Conditions: not given
row,Structure (SMILES),pIC50
1,O=c1[nH]cc(F)c(=O)[nH]1 [FLUOROURACIL],4.55

# Same assay, conditions: read-out: IC50
row,Structure (SMILES),pIC50
1,CCCC(=O)OC[C@H]1O[C@H](CC2=CCCCC2)C=CC1=O,7.05
2,CC/C=C\C/C=C\C/C=C\C/C=C\C/C=C\C/C=C\CCC(=O)OC[C@H]1O[C@H](CC2=CCCCC2)C=CC1=O,7.30
3,CCCCC/C=C\C/C=C\C/C=C\C/C=C\CCCC(=O)OC[C@@H]1C=CC(=O)[C@@H](C2CCCC=C2C)O1 (some centres undefined),5.30
4,O=C1C=C[C@@H](CO)O[C@@H]1CC1=CCCCC1,5.02
5,CC1=CCCCC1[C@H]1O[C@H](CO)C=CC1=O (some centres undefined),5.46
6,CC/C=C\C/C=C\C/C=C\C/C=C\C/C=C\C/C=C\CCC(=O)OC[C@@H]1C=CC(=O)[C@@H](C2CCCC=C2C)O1 (some centres undefined),4.19
7,CCCCCCCC/C=C\CCCCCCCC(=O)OC[C@H]1O[C@H](C2CCCC=C2C)C=CC1=O (some centres undefined),7.30
8,CCCCC/C=C\C/C=C\C/C=C\C/C=C\CCCC(=O)OC[C@H]1O[C@H](CC2=CCCCC2)C=CC1=O,5.15
9,CC/C=C\C/C=C\C/C=C\C/C=C\C/C=C\C/C=C\CCC(=O)OC[C@H]1O[C@H](C2CCCC=C2C)C=CC1=O (some centres undefined),7.70
10,CCCCCCCC/C=C\CCCCCCCC(=O)OC[C@@H]1C=CC(=O)[C@@H](C2CCCC=C2C)O1 (some centres undefined),4.46
11,CC(=O)OC[C@H]1O[C@H](CC2=CCCCC2)C=CC1=O,6.82
12,CC(=O)OC[C@H]1O[C@H](C2CCCC=C2C)C=CC1=O (some centres undefined),6.15
13,CCCCC/C=C\C/C=C\C/C=C\C/C=C\CCCC(=O)OC[C@@H]1C=CC(=O)[C@@H](CC2=CCCCC2)O1,4.46
14,CCCCCCCC/C=C\CCCCCCCC(=O)OC[C@H]1O[C@H](CC2=CCCCC2)C=CC1=O,7.10
15,CC/C=C\C/C=C\C/C=C\C/C=C\C/C=C\C/C=C\CCC(=O)OC[C@@H]1C=CC(=O)[C@@H](CC2=CCCCC2)O1,4.52
16,CCCCC/C=C\C/C=C\C/C=C\C/C=C\CCCC(=O)OC[C@H]1O[C@H](C2CCCC=C2C)C=CC1=O (some centres undefined),9.00
17,O=C1C=C[C@@H](CC2=CCCCC2)O[C@@H]1CO,5.52
18,CCCC(=O)OC[C@H]1O[C@H](C2CCCC=C2C)C=CC1=O (some centres undefined),6.46
